Where a SMILES comes first, the peptide text is derived from it. Bridges are numbered along the chain shown (N, C = ends). [ ]: non-standard residue; d: D form. The star is where a group is joined. hPhe(3,5-F2-4-CF3) = N[C@@H](CCc1cc(F)c(C(F)(F)F)c(F)c1)C(=O)O; NPrPhe(4-CF3) = CCCN[C@@H](Cc1ccc(C(F)(F)F)cc1)C(=O)O; NMeGly(cPent) = CN[C@H](C(=O)O)C1CCCC1; NMeD = CN[C@@H](CC(=O)O)C(=O)O; NMeL = CN[C@@H](CC(C)C)C(=O)O; αMeS = C[C@](N)(CO)C(=O)O; Morpholide = C1CN(*)CCO1; Sar = CNCC(=O)O; Allyl = C=CC*
Tests used:
[1] = target: GDP-bound KRAS wild-type protein (Homo sapiens, UniProt P01116); experiment: Binding to KRAS by surface plasmon resonance (SPR), dissociation constant KD; settings: Single Cycle Kinetics
Summary of the method: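 GDP-bound biotin-Avi RAS captured at ~100–300 RU, 30°C, pH 7.4 HBS containing 10 µM GDP, 10 mM MgCl2, 1 mM DTT, 0.01% Tween 20 and 4% DMSO. KD by 1:1 fitting.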

[2] = target: GDP-bound NRAS wild-type protein (Homo sapiens, UniProt P01111); experiment: Binding to NRAS by surface plasmon resonance (SPR), KD and KD ratio to KRAS
Summary of the method: (§1)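 SPR, 30°C: Avi-biotin RAS·GDP captured via Biotin CAPture (~100–300 RU); running buffer HBS pH 7.4, 1 mM DTT, 10 mM MgCl2, 0.01% Tween 20, 10 µM GDP, 4% DMSO. Single-cycle kinetics, 100 µL/min, 75 s injections; 1:1 model → KD.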

HRAS wild-type protein = HRAS wild-type protein (Homo sapiens, UniProt P01112); experiment: Binding to HRAS by surface plasmon resonance (SPR), KD and KD ratio to KRAS
Summary of the method: as §1

[3] = tested on: human lung cancer strain NCI-H441; assay type: cell-based
Summary of the method: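 Proliferation was scored by […] measured after the reagent was added to cultures kept at 37°C in 5% carbon dioxide.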

[4] = ratio of the KD value with respect to GDP-bound NRAS wild-type protein to the KD value with respect to KRAS
[5] = ratio of the KD value with respect to HRAS wild-type protein to the KD value with respect to KRAS

Sequence of HRAS wild-type protein (P01112 whole entry): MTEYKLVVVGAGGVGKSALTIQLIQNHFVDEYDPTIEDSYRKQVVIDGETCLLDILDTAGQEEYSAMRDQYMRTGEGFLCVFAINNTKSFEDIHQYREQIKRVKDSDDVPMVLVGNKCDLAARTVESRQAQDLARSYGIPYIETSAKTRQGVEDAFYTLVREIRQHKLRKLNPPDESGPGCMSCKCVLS
Sequence of GDP-bound KRAS wild-type protein (P01116 1-188 isoform P01116-2): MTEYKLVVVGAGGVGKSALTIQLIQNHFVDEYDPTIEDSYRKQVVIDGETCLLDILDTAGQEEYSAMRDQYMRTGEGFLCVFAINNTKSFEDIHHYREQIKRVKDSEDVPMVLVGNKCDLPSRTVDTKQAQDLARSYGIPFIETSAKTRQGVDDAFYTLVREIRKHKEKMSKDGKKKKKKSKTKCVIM
Sequence of GDP-bound NRAS wild-type protein (P01111 whole entry): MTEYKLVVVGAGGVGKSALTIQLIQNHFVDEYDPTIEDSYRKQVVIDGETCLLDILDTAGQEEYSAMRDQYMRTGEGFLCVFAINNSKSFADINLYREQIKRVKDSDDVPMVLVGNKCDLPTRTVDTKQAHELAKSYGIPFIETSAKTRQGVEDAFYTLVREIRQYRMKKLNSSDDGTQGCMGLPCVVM

Row | SMILES | Kd ([1]; 1:1 binding model) [nM] | NRAS /KRAS [2, 4] | HRAS /KRAS (HRAS wild-type protein; [5]) | IC50 [3] [nM] | Kd [1] [nM] | NRAS /KRAS ([2]; ratio of KD for GDP-bound NRAS wild-type protein to KD for KRAS) | HRAS /KRAS (HRAS wild-type protein; ratio of KD for HRAS wild-type protein to KD for KRAS)
1 | CCO[C@@H]1C[C@H]2C(=O)NC3(CCC3)C(=O)N(C)[C@@H](C3CCCC3)C(=O)N(C)[C@H](C(=O)N(C)C)CC(=O)N(C)[C@@H](CC(C)(C)C)C(=O)N[C@@H]([C@@H](C)CC)C(=O)N(C)CC(=O)N(C)[C@H]3CCCCCN(C3=O)[C@@H](Cc3ccc(C(F)(F)F)cc3)C(=O)N(C)CC(=O)N[C@@H](CCc3cc(F)c(C(F)(F)F)c(F)c3)C(=O)N2C1 [PP0669] | 0.52 | B (a compound having 3 or more and less than 10 is denoted as B) | B (a compound having 3 or more and less than 10 is denoted as B) | 20.3 |  |  | 
2 | CCO[C@@H]1C[C@H]2C(=O)NC3(CCC3)C(=O)N(C)[C@@H](C3CCCC3)C(=O)N(C)[C@H](C(=O)N(C)C)CC(=O)N(C)[C@@H](CC3CCCC3)C(=O)N[C@@H]([C@@H](C)CC)C(=O)N(C)CC(=O)N(C)[C@H]3CCCCCN(C3=O)[C@@H](Cc3ccc(C(F)(F)F)cc3)C(=O)N(C)CC(=O)N[C@@H](CCc3cc(F)c(C(F)(F)F)c(F)c3)C(=O)N2C1 [PP0670] | 0.28 | B (a compound having 3 or more and less than 10 is denoted as B) | B (a compound having 3 or more and less than 10 is denoted as B) | 11.3 |  |  | 
3 | CCO[C@@H]1C[C@H]2C(=O)NC3(CCC3)C(=O)N(C)[C@@H](C3CCCC3)C(=O)N(C)[C@H](C(=O)N(C)C)CC(=O)N(C)[C@@H](CC3CCCCC3)C(=O)N[C@@H]([C@@H](C)CC)C(=O)N(C)CC(=O)N(C)[C@H]3CCCCCN(C3=O)[C@@H](Cc3ccc(C(F)(F)F)cc3)C(=O)N(C)CC(=O)N[C@@H](CCc3cc(F)c(C(F)(F)F)c(F)c3)C(=O)N2C1 [PP0671] | 0.67 | B (a compound having 3 or more and less than 10 is denoted as B) | B (a compound having 3 or more and less than 10 is denoted as B) | 32.5 |  |  | 
4 | CCO[C@@H]1C[C@H]2C(=O)NC3(CCC3)C(=O)N(C)[C@@H](C3CCCC3)C(=O)N(C)[C@H](C(=O)N(C)C)CC(=O)N(C)[C@@H](Cc3ccccc3)C(=O)N[C@@H]([C@@H](C)CC)C(=O)N(C)CC(=O)N(C)[C@H]3CCCCCN(C3=O)[C@@H](Cc3ccc(C(F)(F)F)cc3)C(=O)N(C)CC(=O)N[C@@H](CCc3cc(F)c(C(F)(F)F)c(F)c3)C(=O)N2C1 [PP0672] | 0.3 | B (a compound having 3 or more and less than 10 is denoted as B) | B (a compound having 3 or more and less than 10 is denoted as B) | 19.7 |  |  | 
5 | CCO[C@@H]1C[C@H]2C(=O)NC3(CCC3)C(=O)N(C)[C@@H](C3CCCC3)C(=O)N(C)[C@H](C(=O)N(C)C)CC(=O)N(C)[C@@H](CCOC)C(=O)N[C@@H]([C@@H](C)CC)C(=O)N(C)CC(=O)N(C)[C@H]3CCCCCN(C3=O)[C@@H](Cc3ccc(C(F)(F)F)cc3)C(=O)N(C)CC(=O)N[C@@H](CCc3cc(F)c(C(F)(F)F)c(F)c3)C(=O)N2C1 [PP0675] | 0.22 | B (a compound having 3 or more and less than 10 is denoted as B) | B (a compound having 3 or more and less than 10 is denoted as B) | 25.5 |  |  | 
6 | CCO[C@@H]1C[C@H]2C(=O)NC3(CCC3)C(=O)N(C)[C@@H](C3CCCC3)C(=O)N(C)[C@H](C(=O)N3CCOCC3)CC(=O)N(C)[C@@H](CC3CCC3)C(=O)N[C@@H]([C@@H](C)CC)C(=O)N(C)CC(=O)N(C)[C@H]3CCCCCN(C3=O)[C@@H](Cc3ccc(C(F)(F)F)cc3)C(=O)N(C)CC(=O)N[C@@H](CCc3cc(F)c(C(F)(F)F)c(F)c3)C(=O)N2C1 [PP0683] | 0.61 | B (a compound having 3 or more and less than 10 is denoted as B) | B (a compound having 3 or more and less than 10 is denoted as B) | 44.7 |  |  | 
7 | CCO[C@@H]1C[C@H]2C(=O)NC3(CCC3)C(=O)N(C)[C@@H](C3CCCC3)C(=O)N(C)[C@H](C(=O)N3CCOCC3)CC(=O)N(C)[C@@H](CC(C)(C)C)C(=O)N[C@@H]([C@@H](C)CC)C(=O)N(C)CC(=O)N(C)[C@H]3CCCCCN(C3=O)[C@@H](Cc3ccc(C(F)(F)F)cc3)C(=O)N(C)CC(=O)N[C@@H](CCc3cc(F)c(C(F)(F)F)c(F)c3)C(=O)N2C1 [PP0684] | 1.1 | B (a compound having 3 or more and less than 10 is denoted as B) | B (a compound having 3 or more and less than 10 is denoted as B) | 45 |  |  | 
8 | CCO[C@@H]1C[C@H]2C(=O)NC3(CCC3)C(=O)N(C)[C@@H](C3CCCC3)C(=O)N(C)[C@H](C(=O)N3CCOCC3)CC(=O)N(C)[C@@H](CC3CCCC3)C(=O)N[C@@H]([C@@H](C)CC)C(=O)N(C)CC(=O)N(C)[C@H]3CCCCCN(C3=O)[C@@H](Cc3ccc(C(F)(F)F)cc3)C(=O)N(C)CC(=O)N[C@@H](CCc3cc(F)c(C(F)(F)F)c(F)c3)C(=O)N2C1 [PP0685] | 0.8 | B (a compound having 3 or more and less than 10 is denoted as B) | B (a compound having 3 or more and less than 10 is denoted as B) | 52.3 |  |  | 
9 | CCO[C@@H]1C[C@H]2C(=O)NC3(CCC3)C(=O)N(C)[C@@H](C3CCCC3)C(=O)N(C)[C@H](C(=O)N3CCOCC3)CC(=O)N(C)[C@@H](CC3CCCCC3)C(=O)N[C@@H]([C@@H](C)CC)C(=O)N(C)CC(=O)N(C)[C@H]3CCCCCN(C3=O)[C@@H](Cc3ccc(C(F)(F)F)cc3)C(=O)N(C)CC(=O)N[C@@H](CCc3cc(F)c(C(F)(F)F)c(F)c3)C(=O)N2C1 [PP0686] | 1 | B (a compound having 3 or more and less than 10 is denoted as B) | B (a compound having 3 or more and less than 10 is denoted as B) | 65.7 |  |  | 
10 | CCO[C@@H]1C[C@H]2C(=O)NC3(CCC3)C(=O)N(C)[C@@H](C3CCCC3)C(=O)N(C)[C@H](C(=O)N3CCOCC3)CC(=O)N(C)[C@@H](Cc3ccccc3)C(=O)N[C@@H]([C@@H](C)CC)C(=O)N(C)CC(=O)N(C)[C@H]3CCCCCN(C3=O)[C@@H](Cc3ccc(C(F)(F)F)cc3)C(=O)N(C)CC(=O)N[C@@H](CCc3cc(F)c(C(F)(F)F)c(F)c3)C(=O)N2C1 [PP0687] | 0.64 | B (a compound having 3 or more and less than 10 is denoted as B) | B (a compound having 3 or more and less than 10 is denoted as B) | 44.1 |  |  | 
11 | CCO[C@@H]1C[C@H]2C(=O)NC3(CCC3)C(=O)N(C)[C@@H](C3CCCC3)C(=O)N(C)[C@H](C(=O)N(C)C)CC(=O)N(C)[C@@H](CC3CCCC3)C(=O)N[C@@H]([C@@H](C)CC)C(=O)N(C)CC(=O)N(C)[C@H]3CCCCN(C3=O)[C@@H](Cc3ccc(C(F)(F)F)cc3)C(=O)N(C)CC(=O)N[C@@H](CCc3cc(F)c(C(F)(F)F)c(F)c3)C(=O)N2C1 [PP0700] | 0.013 | C (A compound having a KD ratio of 0.1 or more and less than 3 is denoted as C) | B (a compound having 3 or more and less than 10 is denoted as B) | 2.9 |  |  | 
12 | CCO[C@@H]1C[C@H]2C(=O)NC3(CCC3)C(=O)N(C)[C@@H](C3CCCC3)C(=O)N(C)[C@H](C(=O)N3CCOCC3)CC(=O)N(C)[C@@H](Cc3cccnc3)C(=O)N[C@@H]([C@@H](C)CC)C(=O)N(C)CC(=O)N(C)[C@H]3CCCCN(C3=O)[C@@H](Cc3ccc(C(F)(F)F)cc3)C(=O)N(C)CC(=O)N[C@@H](CCc3cc(F)c(C(F)(F)F)c(F)c3)C(=O)N2C1 [PP0718] | 0.029 | C (A compound having a KD ratio of 0.1 or more and less than 3 is denoted as C) | B (a compound having 3 or more and less than 10 is denoted as B) | 42.3 |  |  | 
13 | CCO[C@@H]1C[C@H]2C(=O)NC3(CCC3)C(=O)N(C)[C@@H](C3CCCC3)C(=O)N(C)[C@H](C(=O)N(C)C)CC(=O)N(C)[C@@H](C)C(=O)N[C@@H]([C@H](C)CC)C(=O)N(C)CC(=O)N(C)[C@H]3CCCCCN(C3=O)[C@@H](Cc3ccc(C(F)(F)F)cc3)C(=O)N(C)CC(=O)N[C@@H](CCc3cc(F)c(C(F)(F)F)c(F)c3)C(=O)N2C1 [PP0729] | 2.7 | B (a compound having 3 or more and less than 10 is denoted as B) | B (a compound having 3 or more and less than 10 is denoted as B) | 216 |  |  | 
14 | C=CCOC[C@]1(C)NC(=O)[C@@H]2CCCN2C(=O)[C@H](CCc2cc(F)c(C(F)(F)F)c(F)c2)NC(=O)CN(C)C(=O)[C@H](Cc2ccc(C(F)(F)F)cc2)N(CCC)C(=O)CN(C)C(=O)CN(C)C(=O)[C@H]([C@@H](C)CC)NC(=O)[C@H](CC(C)C)N(C)C(=O)C[C@@H](C(=O)N2CCOCC2)N(C)C(=O)[C@H](C2CCCC2)N(C)C1=O [PP0763] ([NMeL]I[Sar][Sar][NPrPhe(4-CF3)][Sar][hPhe(3,5-F2-4-CF3)]P[αMeS](Allyl)[NMeGly(cPent)][NMeD]-Morpholide; lactam N-11) |  |  |  | 83 | 0.98 | B (a compound having 3 or more and less than 10 is denoted as B) | B (a compound having 3 or more and less than 10 is denoted as B)
